Assay results: patent US20200079773A1, “CARBOXYLIC ACID DERIVATIVES OF PYRIDOQUINAZOLINES USEFUL AS PROTEIN KINASE INHIBITORS” (ONCOSTELLAE, S.L., priority 2017, published 2020)

Legend:
Type in all cases: biochemical
JAK3 = target: T1, JAK3 (Homo sapiens, UniProt P52333); experiment: Functional assay of protein kinases (Caliper mobility shift), JAK3; details: ATP 8 μM, 30 min incubation
T1 construct: purchased Carna Biosciences 08-046
Procedure: (§1) Functional Assays of Protein Kinases
(§2) The functional assays of protein kinases were carried out in 384-well plates using a final volume of 30 μl. […] The reaction was reads in a “Caliper EzReader LabChip 3000” (Caliper, Hopkinton, Mass.) reader, based on electrophoretic mobility of the fluorescent substrate and the phosphorylated product.
(§3) The inhibition percentages were calculated by comparison between control reactions, for 100% of inhibition and reactions with only DMSO for 0% of inhibition.

TYK2 = target: T2, TYK2 (Homo sapiens, UniProt P29597); experiment: Functional assay of protein kinases (Caliper mobility shift), TYK2; details: ATP 20 μM, 45 min incubation
T2 construct: purchased Carna Biosciences 08-147
T2 sequence (P29597 871-1187 limits assumed): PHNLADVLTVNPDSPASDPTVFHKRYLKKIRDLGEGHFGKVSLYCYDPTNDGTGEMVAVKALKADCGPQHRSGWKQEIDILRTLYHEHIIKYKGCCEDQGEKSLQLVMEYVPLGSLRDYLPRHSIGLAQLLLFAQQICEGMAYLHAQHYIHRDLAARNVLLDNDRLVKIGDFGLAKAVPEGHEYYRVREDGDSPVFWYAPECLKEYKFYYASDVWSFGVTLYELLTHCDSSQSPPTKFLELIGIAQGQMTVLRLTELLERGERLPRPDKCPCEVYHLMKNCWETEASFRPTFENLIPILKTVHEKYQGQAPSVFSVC
Procedure: as §1, §2, §3

JAK1 = target: T3, JAK1 (Homo sapiens, UniProt P23458); experiment: Functional assay of protein kinases (Caliper mobility shift), JAK1; details: ATP 100 μM, 150 min incubation
T3 construct: purchased Carna Biosciences 08-144
Procedure: as §1, §2, §3

JAK2 = target: T4, JAK2 (Homo sapiens, UniProt O60674); experiment: Functional assay of protein kinases (Caliper mobility shift), JAK2; details: ATP 300 μM, 30 min incubation
T4 construct: purchased Carna Biosciences 08-045
Procedure: as §1, §2, §3

T1 sequence (P52333 795-1124 limits assumed): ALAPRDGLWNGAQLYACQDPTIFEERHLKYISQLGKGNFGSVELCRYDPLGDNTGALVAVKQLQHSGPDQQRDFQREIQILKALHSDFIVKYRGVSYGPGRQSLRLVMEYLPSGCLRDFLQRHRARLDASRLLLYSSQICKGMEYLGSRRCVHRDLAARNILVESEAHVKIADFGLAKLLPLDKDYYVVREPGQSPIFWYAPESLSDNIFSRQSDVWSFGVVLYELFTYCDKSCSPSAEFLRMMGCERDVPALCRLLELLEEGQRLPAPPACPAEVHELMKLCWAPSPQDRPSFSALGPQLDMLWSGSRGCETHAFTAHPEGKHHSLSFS
T4 sequence (O60674 826-1132 limits assumed): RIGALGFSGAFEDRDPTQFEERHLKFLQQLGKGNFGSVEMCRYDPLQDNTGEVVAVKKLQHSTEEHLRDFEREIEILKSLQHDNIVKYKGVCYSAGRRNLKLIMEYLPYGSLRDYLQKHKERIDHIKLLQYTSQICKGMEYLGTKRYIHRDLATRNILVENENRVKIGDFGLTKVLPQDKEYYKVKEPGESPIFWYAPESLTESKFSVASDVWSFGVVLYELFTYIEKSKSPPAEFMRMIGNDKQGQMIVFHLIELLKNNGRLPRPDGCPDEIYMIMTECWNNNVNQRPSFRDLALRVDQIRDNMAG
T3 sequence (P23458 850-1154 limits assumed): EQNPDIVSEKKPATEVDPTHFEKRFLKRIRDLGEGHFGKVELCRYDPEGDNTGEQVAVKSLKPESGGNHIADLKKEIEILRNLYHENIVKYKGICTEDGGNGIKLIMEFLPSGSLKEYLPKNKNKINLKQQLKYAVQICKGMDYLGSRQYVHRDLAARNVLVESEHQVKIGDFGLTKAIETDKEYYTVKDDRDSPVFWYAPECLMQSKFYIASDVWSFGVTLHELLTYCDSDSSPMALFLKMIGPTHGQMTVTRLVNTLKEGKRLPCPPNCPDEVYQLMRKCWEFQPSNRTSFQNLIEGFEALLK

| IC50 (JAK3) [nM] | IC50 (TYK2) [nM] | Structure (SMILES) | IC50 (JAK1) [nM] | IC50 (JAK2) [nM] |
| --- | --- | --- | --- | --- |
| < 100 | < 100 | O=C(N[C@H]1CC[C@@H](C(=O)O)CC1)c1cccn2c(=O)c3cc(-c4cccc(F)c4)ccc3nc12 [Example 29, (cis)-4-(2-(3-fluorophenyl)-11-oxo-11H-pyrido[2,1-b]quinazoline-6-carboxamido)cyclohexane-1-carboxylic acid] |  |  |
| 100 to 1000 | 100 to 1000 | O=C(NC1CCC(C(=O)O)CC1)c1cccn2c(=O)c3cc(Cl)ccc3nc12 (centres unmarked) [Example 23, 4-(2-chloro-11-oxo-11H-pyrido[2,1-b]quinazoline-6-carboxamido)cyclohexane-1-carboxylic add] | ≥ 1000 | ≥ 1000 |
| < 100 | < 100 | O=C(N[C@H]1CC[C@@H](C(=O)O)CC1)c1cccn2c(=O)c3cc(-c4ccc(F)c(F)c4)ccc3nc12 [Example 30, (cis)-4-(2-(3,4-difluorophenyl)-11-oxo-11H-pyrido[2,1-b]quinazoline-6-carboxamido)cyclohexane-1-carboxylic acid] |  |  |
| 100 to 1000 | < 100 | O=C(N[C@H]1CC[C@@H](C(=O)O)CC1)c1cc(Br)cn2c(=O)c3ccccc3nc12 [Example 40, (cis)-4-(8-bromo-11-oxo-11H-pyrido[2,1-b]quinazoline-6-carboxamido)cyclohexane-1-carboxylic acid] |  |  |
| < 100 | < 100 | O=C(O)c1ccc(-c2ccc3nc4c(C(=O)N[C@H]5CC[C@@H](C(=O)O)CC5)cccn4c(=O)c3c2)s1 [Example 47, 5-(6-(((1s,4s)-4-carboxycyclohexyl)carbamoyl)-11-oxo-11H-pyrido[2,1-b]quinazolin-2-yl)thiophene-2-carboxylic acid] |  |  |
| < 100 | < 100 | Cc1ccc(-c2ccc3nc4c(C(=O)N[C@H]5CC[C@@H](C(=O)O)CC5)cccn4c(=O)c3c2)s1 [Example 2, (1S,4S)-4-(2-(5-methylthiophen-2-yl)-11-oxo-11H-pyrido[2,1-b]quinazoline-6 carboxamido)cyclohexane-1-carboxylic acid] |  |  |
| < 100 | < 100 | Cn1cc(-c2ccc3nc4c(C(=O)N[C@H]5CC[C@@H](C(=O)O)CC5)cccn4c(=O)c3c2)cn1 [Example 38, (cis)-4-(2-(1-methyl-1H-pyrazol-4-yl)-11-oxo-11H-pyrido[2,1-b]quinazoline-6-carboxamido)cyclohexane-1-carboxylic acid] |  |  |
| < 100 | < 100 | O=C(N[C@H]1CC[C@@H](C(=O)O)CC1)c1cccn2c(=O)c3cc(-c4cccs4)ccc3nc12 [Example 39, (cis)-4-(11-oxo-2-(thiophen-2-yl)-11H-pyrido[2,1-b]quinazoline-6-carboxamido)cyclohexane-1-carboxylic acid] |  |  |
| < 100 | < 100 | O=C(N[C@H]1CC[C@@H](C(=O)O)CC1)c1cccn2c(=O)c3cc(-c4ccc(C5CC5)s4)ccc3nc12 [Example 45, (1S,4S)-4-(2-(5-cyclpropylthiophen-2-yl)-11-oxo-11H-pyrido[2,1-b]quinazoline-6-carboxamido)cyclohexane-1-carboxylic acid] |  |  |
| < 100 | < 100 | O=C(O)c1ccc(-c2ccc3nc4c(C(=O)N[C@H]5CC[C@@H](C(=O)O)CC5)cccn4c(=O)c3c2)cc1 [Example 33, 4-(6-(((cis)-4-carboxycyclohexyl)carbamoyl)-11-oxo-11H-pyrido[2,1-b]quinazolin-2-yl)benzoic acid] |  |  |
| 100 to 1000 | 100 to 1000 | O=C(NC1CCC(C(=O)O)CC1)c1cccn2c(=O)c3cc(O)ccc3nc12 (centres unmarked) [Example 19, 4-(2-hydroxy-11-oxo-11H-pyrido[2,1-b]quinazoline-6-carboxamido)cyclohexane-1-carboxylic acid] |  |  |
| 100 to 1000 | 100 to 1000 | O=C(NC1CC(C(=O)O)C1)c1cccn2c(=O)c3cc(C4CC4)ccc3nc12 (centres unmarked) [Example 41, 3-(2-cyclopropyl-11-oxo-11H-pyrido[2,1-b]quinazoline-6-carboxamido)cyclobutane-1-carboxylic acid] |  |  |
| 100 to 1000 | ≥ 1000 | O=C(N[C@H]1CC[C@H](C(=O)O)CC1)c1cccn2c(=O)c3cc(-c4ccncc4)ccc3nc12 [Example 35, (trans)-4-(11-oxo-2-(pyridin-4-yl)-11H-pyrido[2,1-b]quinazoline-6-carboxamido)cyclohexane-1-carboxylic acid] |  |  |
| < 100 | < 100 | N#Cc1ccc(-c2ccc3nc4c(C(=O)N[C@H]5CC[C@@H](C(=O)O)CC5)cccn4c(=O)c3c2)cc1 [Example 31, (cis)-4-(2-(4-cyanophenyl)-11-oxo-11H-pyrido[2,1-b]quinazoline-6-carboxamido)cyclohexane-1-carboxylic acid] |  |  |
| < 100 | 100 to 1000 | O=C(N[C@H]1CC[C@@H](C(=O)O)CC1)c1cccn2c(=O)c3cc(-c4cncnc4)ccc3nc12 [Example 37, (cis)-4-(11-oxo-2-(pyrimidin-5-yl)-11H-pyrido[2,1-b]quinazoline-6-carboxamido)cyclohexane-1-carboxylic acid] |  |  |
| < 100 | < 100 | N#Cc1ccc(-c2ccc3nc4c(C(=O)N[C@H]5CC[C@@H](C(=O)O)CC5)cccn4c(=O)c3c2)s1 [Example 42, (1S,4S)-4-(2-(5-cyanothiophen-2-yl)-11-oxo-11H-pyrido[2,1-b]quinazoline-6-carboxamido)cyclohexane-1-carboxylic acid] |  |  |
| < 100 | < 100 | N#Cc1cccc(-c2ccc3nc4c(C(=O)N[C@H]5CC[C@@H](C(=O)O)CC5)cccn4c(=O)c3c2)c1 [Example 32, (cis)-4-(2-(3-cyanophenyl)-11-oxo-11H-pyrido[2,1-b]quinazoline-6-carboxamido)cyclohexane-1-carboxylic acid] |  |  |
| < 100 | < 100 | Cn1cnc(-c2ccc3nc4c(C(=O)N[C@H]5CC[C@@H](C(=O)O)CC5)cccn4c(=O)c3c2)c1 [Example 44, (1S,4S)-4-(2-(1-methyl-1H-Imidazol-4-yl)-11-oxo-11H-pyrido[2,1-b]quinazoline-6-carboxamido)cyclohexane-1-carboxylic acid] |  |  |
| < 100 | 100 to 1000 | O=C(N[C@H]1CC[C@@H](C(=O)O)CC1)c1cccn2c(=O)c3cc(-c4ccncc4F)ccc3nc12 [Example 36, (cis)-4-(2-(3-fluoropyridin-4-yl)-11-oxo-11H-pyrido[2,1-b]quinazoline-6-carboxamido)cyclohexane-1-carboxylic acid] |  |  |
| < 100 | < 100 | NC(=O)c1ccc(-c2ccc3nc4c(C(=O)N[C@H]5CC[C@@H](C(=O)O)CC5)cccn4c(=O)c3c2)s1 [Example 43, (1S,4S)-4-(2-(5-carbamoylthiophen-2-yl)-11-oxo-11H-pyrido[2,1-b]quinazoline-6-carboxamido)cyclohexane-1-carboxylic acid] |  |  |
| < 100 | < 100 | O=C(N[C@H]1CC[C@@H](C(=O)O)CC1)c1cccn2c(=O)c3cc(-c4cccnc4)ccc3nc12 [Example 34, (cis)-4-(11-oxo-2-(pyridin-3-yl)-11H-pyrido[2,1-b]quinazoline-6-carboxamido)cyclohexane-1-carboxylic acid] |  |  |

| Structure (SMILES) | IC50 (JAK3) [nM] | IC50 (TYK2) [nM] | IC50 (JAK1) [nM] | IC50 (JAK2) [nM] |
| --- | --- | --- | --- | --- |
| O=C(NC1CCC(C(=O)O)CC1)c1cccn2c(=O)c3cc(C4CC4)ccc3nc12 (centres unmarked) [Example 1, 4-(2-cyclpropyl-11-oxo-11H-pyrido[2,1-b]quinazoline-6-carboxamido)cyclohexane-1-carboxylic acid] | < 100 |  | ≥ 1000 | ≥ 1000 |
